Read-outs that look alike come from different tables or passages of the source.
Assays:
[1] = biological target: P-gp (Homo sapiens, UniProt P08183); assay: in vitro; settings: MDCK-MDR1, pH 7.4
Protocol: MDCK epithelial cells stably transfected with the human MDR1 gene (the gene encoding for the efflux protein P-gp) were seeded on a Multiscreen™ plate (Millipore, MA, USA) and formed a confluent monolayer over 4 days prior to the experiment. To verify the MDR1-MDCK cell monolayers were properly formed, aliquots of the cell buffers were analyzed by fluorescence to determine the transport of the impermeable dye Lucifer Yellow. Any deviations from control values are reported.
MDR1-MDCK cells were incubated with these buffers for 2 h, and the receiver side buffer was removed for analysis by LC-MS/MS.
The rate of passage of the test compounds through this cell monolayer barrier from apical to basolateral (A→B) in this bi-directional transport assay was used to determine the apparent permeability coefficient (Papp). Receiver, donor, and dosing solution concentrations were quantified using a calibration curve prepared in transport buffer solution (pH 7.4). Papp is calculated as
where dQ/dt is rate of permeation, C0 is initial concentration of test agent, and A is the area of monolayer (0.11 cm^2). The basolateral to apical (B→A) to apical to basolateral (A→B) apparent permeability coefficient ratio
When RE>2 for a tested compound, the tested compound is a potential substrate for P-gp.
Rantinidine, talinolol, warfarin, and loperamide (±2 μM elacridar) were tested as reference compounds and each was tested at a concentration of 10 μM.

[2] = tested on: MV4;11-Control cell line; assay: CellTiter-Glo cell viability assay, MV4;11-Control; type: cell-based; set-up: unit of the concentration uncertain
Protocol: The influence of efflux pumps on the antitumor activity of the test compounds at steady state (more clinically relevant) were evaluated using P-gp-transfected AML cells (MV4;11 cells) in 6-day viability assays.
A P-gp-expressing KMT2A(MLL)-rearranged cell line model was developed by lentiviral transduction of the MV4;11 parental cell line and then selection for either Luciferase ORF (MV4;11-Control) or P-gp ORF (MV4;11-PGP).
[…] Cell viability was measured by CellTiter-Glo® Luminescent Cell Viability Assay (CTG assay, Promega Corp.) and % Viability was quantified by normalizing to the luminescence values of DMSO-only treated cells. The dose-response curves and IC50's were calculated using GraphPad Prism 9.4.1.
The measured luminescence in the live cells of the MV4;11-Control and MV4;11-PGP cells that were treated with Compound I only (+DMSO), Compound I+posaconazole […], and valspodar (1 mM) are shown in FIGS. 5A and 5B.
In a second set of experiments, MV4;11-Control and MV4;11-PGP cell lines were treated as described above with five menin inhibitors, including Compound I, SNDX-5613, Compound A, Compound B, and Compound C, at concentrations ranging from 0 to 1000 nM. All tested compounds dropped in potency due to the P-gp expression as shown in FIGS. 6A-6J and in Tables 5 and 6 (indicated by increased IC50 values between “MV4;11-Control (Compound+DMSO)” and “MV4;11-PGP (Compound+DMSO)” entries).

[3] = tested on: MOLM13-Control cell line; assay: Cell viability assay, MOLM13-Control; type: cell-based; set-up: unit of the concentration uncertain; settings: 168 h, 7 days
Protocol: (§1) The effects described above were investigated in an AML cell line, MOLM-13, which carries a KA4T2A (MLL)-rearrangement mutation. The P-gp expressing MOLM-13 cell line (MOLM13-PGP) and the Luciferase expressing MOLM-13 cell line (MOLM13-Control) were established by lentivirally transducing P-gp ORF or Luciferase ORF. Cells were plated and treated with test compound for 7 days.

[4] = tested on: MOLM13-PGP cell line; assay: Cell viability assay, MOLM13-PGP; type: cell-based; set-up: unit of the concentration uncertain; settings: 168 h, 7 days
Protocol: as §1

[5] = tested on: OCI-AML3-Control cell line; assay: Cell viability assay, OCI-AML3-Control; type: cell-based; set-up: unit of the concentration uncertain; settings: 168 h, 7 days
Protocol: (§2) A third set of experiments was conducted in the cell line OCI-AML3, which carries the W288Cfs*12 mutation in NPM protein. The P-gp expressing OCI-AML3 cell line (OCI-AML3-PGP) and the Luciferase expressing OC-AML3 cell line (OCI-AML3-Control) were established by lentivirally transducing P-gp ORF or Luciferase ORF. Cells were treated with Compound I or SNDX-5613 for 7 days to assess the IC50 values.

[6] = tested on: OCI-AML3-PGP cell line; assay: Cell viability assay, OCI-AML3-PGP; type: cell-based; set-up: unit of the concentration uncertain; settings: 168 h, 7 days
Protocol: as §2

P-gp, sequence (P08183 whole entry): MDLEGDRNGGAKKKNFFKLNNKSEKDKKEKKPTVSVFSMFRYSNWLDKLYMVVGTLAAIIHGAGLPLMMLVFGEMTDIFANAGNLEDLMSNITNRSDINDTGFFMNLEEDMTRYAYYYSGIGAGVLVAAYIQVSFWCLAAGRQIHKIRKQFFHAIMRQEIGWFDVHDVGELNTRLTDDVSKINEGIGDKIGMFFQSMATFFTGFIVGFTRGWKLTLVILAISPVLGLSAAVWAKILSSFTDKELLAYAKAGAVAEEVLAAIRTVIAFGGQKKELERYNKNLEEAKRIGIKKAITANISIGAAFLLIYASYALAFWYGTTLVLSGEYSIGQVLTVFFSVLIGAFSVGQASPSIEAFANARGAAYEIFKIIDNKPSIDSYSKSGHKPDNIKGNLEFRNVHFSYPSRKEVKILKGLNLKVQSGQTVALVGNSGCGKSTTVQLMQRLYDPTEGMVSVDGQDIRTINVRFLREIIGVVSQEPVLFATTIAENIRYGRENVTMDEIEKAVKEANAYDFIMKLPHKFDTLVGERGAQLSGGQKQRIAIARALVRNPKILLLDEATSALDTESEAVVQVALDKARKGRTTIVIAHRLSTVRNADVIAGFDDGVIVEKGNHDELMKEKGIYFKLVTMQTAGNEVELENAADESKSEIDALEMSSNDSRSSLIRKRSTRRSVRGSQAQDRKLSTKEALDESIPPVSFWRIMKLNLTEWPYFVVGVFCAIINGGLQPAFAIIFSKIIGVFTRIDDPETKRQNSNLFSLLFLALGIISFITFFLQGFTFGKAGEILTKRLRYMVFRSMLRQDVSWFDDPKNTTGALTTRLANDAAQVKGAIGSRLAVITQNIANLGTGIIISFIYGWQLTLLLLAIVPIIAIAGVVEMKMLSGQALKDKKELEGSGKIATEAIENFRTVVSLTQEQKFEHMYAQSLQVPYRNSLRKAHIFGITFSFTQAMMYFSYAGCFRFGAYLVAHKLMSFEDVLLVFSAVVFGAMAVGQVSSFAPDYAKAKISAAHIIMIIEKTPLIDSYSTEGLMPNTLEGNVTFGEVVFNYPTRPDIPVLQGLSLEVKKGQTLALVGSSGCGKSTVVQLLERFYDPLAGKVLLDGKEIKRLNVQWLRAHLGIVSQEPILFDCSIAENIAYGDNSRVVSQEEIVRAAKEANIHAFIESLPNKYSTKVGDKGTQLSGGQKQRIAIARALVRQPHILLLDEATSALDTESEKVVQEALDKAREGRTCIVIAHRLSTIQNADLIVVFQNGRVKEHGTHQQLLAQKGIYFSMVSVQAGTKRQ

**Q.** Which Papp A→B at 2 h [1] does the source give for CNc1nc(NC2CCN(Cc3ccc4c(cc(C#N)n4C[C@H](C)N4CCN(S(C)(=O)=O)CC4)c3C)CC2)c2cc(CC(F)(F)F)sc2n1 [Compound I] here?
**A.** Its Papp A→B at 2 h is 0.308 ×10⁻⁶ cm/s.

**Q.** And the Papp B→A at 2 h [1]?
**A.** Its Papp B→A at 2 h is 1.84 ×10⁻⁶ cm/s.

**Q.** What about the IC50 ([2]; 120 h, MV4;11-Control, 5 days, Table 4, read-out: IC50 (Compound I + DMSO)) of the same molecule?
**A.** Its IC50 is 7.2 nM.

**Q.** What about the IC50 ([2]; 120 h, MV4;11-Control, posaconazole (1.5 μM), 5 days, Table 4, read-out: IC50 (Compound I + Posaconazole)) of the same molecule?
**A.** Its IC50 is 3.8 nM.

**Q.** What about the IC50 ([2]; 120 h, MV4;11-Control, valspodar (1 μM), 5 days, Table 4, read-out: IC50 (Compound I + Valspodar)) of the same molecule?
**A.** The IC50 was 6.1 nM.

**Q.** What about the IC50 ([2]; 144 h, Compound I only, 0 to 1000 nM, 6 days, Table 3, read-out: IC50 MV4;11-Control) of the same molecule?
**A.** The IC50 was 7.6 nM.

**Q.** What about the IC50 ([2]; 144 h, second set of experiments, 0 to 1000 nM, Table 5, read-out: IC50 MV4;11-Control (Compound + DMSO)) of the same molecule?
**A.** Its IC50 is 6.05 nM.

**Q.** What about the IC50 ([2]; 144 h, second set of experiments, 0 to 1000 nM, Table 6, read-out: IC50 MV4;11-Control (Compound + DMSO)) of the same molecule?
**A.** The IC50 was 6.14 nM.

**Q.** And the IC50 ([2]; second set of experiments, posaconazole (1.5 (unit uncertain)), Table 5, read-out: IC50 MV4;11-Control (Compound + posaconazole))?
**A.** Its IC50 is 3.76 nM.

**Q.** What about the IC50 ([2]; second set of experiments, valspodar (1 (unit uncertain)), Table 6, read-out: IC50 MV4;11-Control (Compound + valspodar)) of the same molecule?
**A.** Its IC50 is 4.84 nM.

**Q.** And the IC50 ([3]; Table 7, read-out: IC50 MOLM13-Control (Compound + DMSO))?
**A.** The IC50 was 23.7 nM.

**Q.** And the IC50 ([3]; Table 8, read-out: IC50 MOLM13-Control (compound + DMSO))?
**A.** Its IC50 is 27 nM.

**Q.** What about the IC50 ([3]; posaconazole (1.5 (unit uncertain)), Table 7, read-out: IC50 MOLM13-Control (Compound + posaconazole)) of the same molecule?
**A.** The IC50 was 16.5 nM.

**Q.** What about the IC50 ([3]; valspodar (1 (unit uncertain)), Table 8, read-out: IC50 MOLM13-Control (Compound + valspodar)) of the same molecule?
**A.** Its IC50 is 22.3 nM.

**Q.** What about the IC50 ([4]; Table 7, read-out: IC50 MOLM13-PGP (Compound + DMSO)) of the same molecule?
**A.** Its IC50 is 65.7 nM.

**Q.** What about the IC50 ([4]; Table 8, read-out: IC50 MOLM13-PGP (Compound + DMSO)) of the same molecule?
**A.** Its IC50 is 63.2 nM.

**Q.** What about the IC50 ([4]; posaconazole (1.5 (unit uncertain)), Table 7, read-out: IC50 MOLM13-PGP (Compound + posaconazole)) of the same molecule?
**A.** The IC50 was 19.2 nM.

**Q.** And the IC50 ([4]; valspodar (1 (unit uncertain)), Table 8, read-out: IC50 MOLM13-PGP (Compound + valspodar))?
**A.** The IC50 was 23 nM.

**Q.** What about the IC50 ([5]; Table 9, read-out: IC50 OCI-AML3-Control (Compound + DMSO)) of the same molecule?
**A.** The IC50 was 16.4 nM.

**Q.** What about the IC50 ([5]; Table 10, read-out: IC50 OCI-AML3-Control (Compound + DMSO)) of the same molecule?
**A.** Its IC50 is 15.3 nM.

**Q.** What about the IC50 ([5]; posaconazole (0.75 (unit uncertain)), Table 9, read-out: IC50 OCI-AML3-Control (Compound + posaconazole)) of the same molecule?
**A.** The IC50 was 17.7 nM.

**Q.** What about the IC50 ([5]; valspodar (1 (unit uncertain)), Table 10, read-out: IC50 OCI-AML3-Control (Compound + valspodar)) of the same molecule?
**A.** The IC50 was 19.2 nM.

**Q.** What about the IC50 ([6]; Table 9, read-out: IC50 OCI-AML3-PGP (Compound + DMSO)) of the same molecule?
**A.** The IC50 was 38.9 nM.

**Q.** What about the IC50 ([6]; Table 10, read-out: IC50 OCI-AML3-PGP (Compound + DMSO)) of the same molecule?
**A.** Its IC50 is 50.2 nM.

**Q.** What about the IC50 ([6]; posaconazole (0.75 (unit uncertain)), Table 9, read-out: IC50 OCI-AML3-PGP (Compound + posaconazole)) of the same molecule?
**A.** The IC50 was 19.2 nM.

**Q.** And the IC50 ([6]; valspodar (1 (unit uncertain)), Table 10, read-out: IC50 OCI-AML3-PGP (Compound + valspodar))?
**A.** Its IC50 is 15.7 nM.

Source: US20250152591A1, “TREATMENT OF HEMATOLOGICAL MALIGNANCIES WITH MENIN INHIBITORS AND P-GLYCOPROTEIN INHIBITORS” (Kura Oncology, Inc., priority 2022, published 2025)
